In PubChem BioAssay AID2765 (Broad Institute, 2010):
pEC50: −log10 of the molar value. Active and inactive are the calls of the source.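 Rule for the calls: active = half-maximal concentration for the rise in caspase light signal at or below ten times the top tested dose; inconclusive = flat fit between 30% and 70% activity, or unreliable curve fit; inactive = the rest.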

Each compound was assayed on MEF A1-2A-BIM cells, caspase 3/7 luminescence, 3 h (assay: caspase activation in A1-2A-BIM MEF cells, dose response, A1 inhibitor project, cell-based, luminescence, retest (AID 2765)).

| Compound | EC50 | pEC50 |
| --- | --- | --- |
| CC(C)N=c1scc(-c2ccco2)n1/N=C/c1ccc(O)c(O)c1 | > 35 µM (inactive) | – |
| CCOc1ccc(CNC2CCCCCCC2)cc1OC | > 35 µM (inactive) | – |
| Cc1nc(NC(=O)CN2CCN(c3cccc(Cl)c3)CC2)sc1C(=O)N(C)C | > 35 µM (inactive) | – |
| Cc1cccc(NC(=S)NCCc2ccc(F)cc2)c1C | > 35 µM (inactive) | – |
| Clc1ccc(C2=CC(c3ccco3)n3ncnc3N2)cc1 (configuration not stated) | > 35 µM (inactive) | – |
| O=C(N/N=C\c1cccc(Cl)c1)c1ccc(Cn2cccn2)o1 | > 35 µM (inactive) | – |
| COc1cc(C(=O)Nc2cc3c(cc2N2CCCCC2)n(C)c(=O)n3C)cc(OC)c1OC | > 35 µM (inactive) | – |
| O=C(CS(=O)c1ccc(C(F)(F)F)cc1[N+](=O)[O-])Oc1ccccc1 (configuration not stated) | > 35 µM (inactive) | – |
| O=C(Nc1ccccc1C(=O)N1CCCCCC1)c1ccc(Cl)cc1 | > 35 µM (inactive) | – |
| Cc1cc(Br)c(OCc2ccc(C(=O)N/N=C/c3ccc[nH]3)cc2)c(Br)c1 | – | 4.47 |
| Nc1nc(F)nc2c1ncn2[C@@H]1O[C@H](CO)[C@@H](O)[C@H]1O | > 35 µM (inactive) | – |
| O=C(Nc1ccccc1N1CCCCC1)c1ccc(Cl)cc1 | > 35 µM (inactive) | – |
| O=C(C1=C[C@H](c2coc3ccccc3c2=O)C[C@H](OCc2ccc(CO)cc2)O1)N1CCN(Cc2ccccc2)CC1 | > 35 µM (inactive) | – |
| COc1ccccc1CNC(=O)COc1ccc([N+](=O)[O-])cc1 | > 35 µM (inactive) | – |
| O=C(Cc1cn2ccsc2n1)Nc1cccc2cnccc12 | > 35 µM (inactive) | – |
| COc1cc(NC(=O)c2cccs2)ccc1NC(=O)c1cc2ccccc2o1 | > 35 µM (inactive) | – |
| Cc1cccc(Nc2nc(N)c([N+](=O)[O-])c(N3CCCC(C)C3)n2)c1 (configuration not stated) | > 35 µM (inactive) | – |
| C=CC[C@@H](CC(=O)N[C@@H](CO)Cc1ccccc1)C(=O)N[C@H](COC(=O)[C@H](CC=C)CC(=O)OC(C)(C)C)Cc1ccccc1 | > 35 µM (inactive) | – |
| COc1ccccc1OCC(=O)NNC(=O)c1ccc(F)c(S(=O)(=O)N2CCOCC2)c1 | > 35 µM (inactive) | – |
| O=C(/C=C/c1ccc(F)cc1)NC(=S)Nc1ccccc1C(=O)NC1CCCCC1 | > 35 µM (inactive) | – |
| CCCc1ccc(OCc2ccc(C(=O)N/N=C/c3cccc([N+](=O)[O-])c3)o2)c(OC)c1 | – | 5.14 |
| Cc1c(Nc2nc3ccccc3nc2NS(=O)(=O)c2cccc(Cl)c2)c(=O)n(-c2ccccc2)n1C | > 35 µM (inactive) | – |
| COc1ccccc1NC(=O)CC1COc2ccccc2O1 (configuration not stated) | > 35 µM (inactive) | – |

| Compound | EC50 | pEC50 |
| --- | --- | --- |
| Cc1c(CCCC(=O)O)sc(N)c1C(=O)c1cccc(C(F)(F)F)c1 | > 35 µM (inactive) | – |
| Cc1cc(C(F)(F)F)n2ncc(-c3cccc(Br)c3)c2n1 | > 35 µM (inactive) | – |
| C[C@H](CO)N1C[C@H](C)[C@H](CN(C)Cc2ccc(-c3ccccc3)cc2)Oc2ccc(NS(=O)(=O)c3ccccc3)cc2CC1=O | > 35 µM (inactive) | – |
| Cc1ccc(NC(=O)Cn2ncc(Cl)c(Cl)c2=O)cc1S(=O)(=O)N1CCCCC1 | > 35 µM (inactive) | – |
| CCCc1cc(=O)oc2c(C)c(OCC(=O)Nc3ccc(CN4CCOCC4)cc3)ccc12 | > 35 µM (inactive) | – |
| CN1CCN(CCCNC(=O)c2ccc3c(Cl)c4c(nc3c2)CCCC4)CC1 | > 35 µM (inactive) | – |
| CN(c1ccc(OCC(=O)NC2CCC(O)CC2)cc1)S(=O)(=O)c1ccc(Cl)cc1 (configuration not stated) | > 35 µM (inactive) | – |
| COc1ccc(C(O)Cc2nccn2C)cc1 (configuration not stated) | > 35 µM (inactive) | – |
| O=C(NCc1cccnc1)[C@@H]1CC=C[C@@H]2CCN(Cc3ccccc3)C(=O)[C@@H]21 | > 35 µM (inactive) | – |
| CCOc1cc2c(cc1OCC)C(c1ccccc1)N(c1ccccc1)C(=O)C2 (configuration not stated) | > 35 µM (inactive) | – |
| COc1cc(NC(=O)c2nn(C)c3c2CS(=O)(=O)c2ccccc2-3)cc(OC)c1 | > 35 µM (inactive) | – |
| CSc1ccc(C(c2c(C)[nH][nH]c2=O)c2c(C)[nH][nH]c2=O)cc1 | > 35 µM (inactive) | – |
| CCOc1ccccc1C(=O)N[C@H](C(=O)OCc1cc([N+](=O)[O-])cc2c1OCOC2)C(C)C | > 35 µM (inactive) | – |
| COc1ccccc1CCC(=O)Nc1ccc(S(=O)(=O)Nc2nccs2)cc1 | > 35 µM (inactive) | – |
| CCN(CC)c1ncnc2c1cnn2Cc1ccc(Cl)cc1 | > 35 µM (inactive) | – |
| COc1ccccc1NS(=O)(=O)c1ccc(C)c(C(=O)N2CCN(c3ccc(O)cc3)CC2)c1 | > 35 µM (inactive) | – |
| COc1ccc(S(=O)(=O)Nc2ccc(NC(C)=O)cc2)cc1 | > 35 µM (inactive) | – |
| Nc1nc(CSc2nc3ccccc3[nH]2)nc(N2CCOCC2)n1 | > 35 µM (inactive) | – |
| Cc1ccc(NC(=S)NC(NC(=O)Cc2cccc3ccccc23)C(Cl)(Cl)Cl)cc1 (configuration not stated) | – | 4.70 |
| CCOCCCNC(=O)c1ccc(N2CC3CC(C2)c2cccc(=O)n2C3)c(NC(=O)Nc2cccc(OC)c2)c1 (configuration not stated) | > 35 µM (inactive) | – |
| COc1cc(C(=O)NCc2cc(C)nc3ccccc23)cc(OC)c1OC | > 35 µM (inactive) | – |
| O=[N+]([O-])/C=C/c1cn(Cc2ccc(Cl)cc2)c2ccccc12 | – | 4.67 |
| CCCCn1nc(C)c(C(=O)O)c1Cl | > 35 µM (inactive) | – |

| Compound | EC50 | pEC50 |
| --- | --- | --- |
| O=C(O)COc1ccccc1C=NNc1ccc([N+](=O)[O-])cc1S(=O)(=O)Nc1ccc(Cl)cc1 | > 35 µM (inactive) | – |
| Cc1noc(C)c1COc1ccc(C(=O)OC(C)C(=O)Nc2ccc(N3CCOCC3)cc2)cc1 (configuration not stated) | > 35 µM (inactive) | – |
| CCc1ccc(CN/C=C/C(=O)c2ccc(Br)cc2)cc1 | > 35 µM (inactive) | – |
| Cc1cccc(C)c1NC(=O)CS(=O)CC(=O)N1CCN(c2ccccc2)CC1 (configuration not stated) | > 35 µM (inactive) | – |
| COc1cc2cnc(-c3ccccc3)c(-c3cccc(C(F)(F)F)c3)c2cc1OC | > 35 µM (inactive) | – |
| COc1cc(CN2CCNC(=O)C2CC(=O)N(C)CCCN2CCOCC2)cc(OC)c1 (configuration not stated) | > 35 µM (inactive) | – |
| O=C(COc1ccc(Cl)cc1)NCc1nnc(SCC(=O)Nc2ccccc2F)o1 | > 35 µM (inactive) | – |
| COC(=O)C[C@H]1c2ccccc2S(=O)(=O)N1c1cccc(OC)c1 | > 35 µM (inactive) | – |
| CC(C)c1ccc(NC(=S)NNC(=O)c2cccs2)cc1 | > 35 µM (inactive) | – |
| CCn1c(SCC(=O)Nc2ccc(C(C)=O)cc2)nc2c([nH]c3ccccc32)c1=O | – | 4.89 |
| Cc1cc(Sc2ncnc(N)c2[N+](=O)[O-])ncn1 | > 35 µM (inactive) | – |
| CN1C(=O)[C@H]2[C@@H](C3CC3)N3C(=O)CN(Cc4ccc(-c5ccccc5)cc4)C(=O)[C@@]3(C)[C@H]2C1=O | > 35 µM (inactive) | – |
| CC1(C)CC(=O)c2cc3c(N)c(C(=O)NCc4ccccc4)sc3nc2C1 | > 35 µM (inactive) | – |
| COc1ccc(NS(=O)(=O)c2cc(NC(=O)c3ccc(Cl)cc3)ccc2N2CCOCC2)cc1 | > 35 µM (inactive) | – |
| Cc1cccc(NC(=O)/C(C#N)=C/c2cn(CC(=O)NCc3ccco3)c3ccccc23)c1 | – | 4.66 |
| CCC(NC(=O)c1cccc(Cn2cc([N+](=O)[O-])cn2)c1)c1ccc(C(C)C)cc1 (configuration not stated) | > 35 µM (inactive) | – |
| O=C(Nc1ccc2oc(-c3cccc(F)c3)nc2c1)c1ccccc1F | > 35 µM (inactive) | – |
| Nc1nc(Cl)nc2c1ncn2[C@H]1C[C@H](O)[C@@H](CO)O1 | > 35 µM (inactive) | – |
| O=C(CNc1cccc(S(=O)(=O)N2CCCC2)c1)Nc1cccc(C(F)(F)F)c1 | > 35 µM (inactive) | – |
| O=S1(=O)CCOC[C@H](CC2CCCCC2)N1Cc1cccc(Cl)c1 | > 35 µM (inactive) | – |
| COc1ccc(OC)c2sc(N(CCCN(C)C)C(=O)c3ccc(S(=O)(=O)N4CCc5ccccc5C4)cc3)nc12 | > 35 µM (inactive) | – |
| Cc1cc(Nc2ccc(Cl)cc2)n2ncnc2n1 | > 35 µM (inactive) | – |
| CN(C)C(=O)c1ccc(OCC(F)(F)F)nc1 | > 35 µM (inactive) | – |

| Compound | EC50 | pEC50 |
| --- | --- | --- |
| CCc1ccc(N(CC)C(=O)c2cn(C)c(=O)c3ccccc23)cc1 | > 35 µM (inactive) | – |
| Nc1c(C(=O)Nc2ccc(S(=O)(=O)N3CCCC3)cc2)sc2nc3ccc(OC(F)(F)F)cc3cc12 | – | 5.06 |
| CN1C(C(=O)Nc2cccc(O)c2)=CC(c2ccco2)=NS1(=O)=O | > 35 µM (inactive) | – |
| Cc1cccc(C)c1NC(=S)Nc1ccccc1C(=O)NCc1ccco1 | > 35 µM (inactive) | – |
| COCCNC(=S)N(CCc1c(C)[nH]c2ccccc12)Cc1cccnc1 | > 35 µM (inactive) | – |
| COc1ccc(-c2ccc3c(c2)S(=O)(=O)c2cccc(C(=O)NCc4cccc(OC(F)(F)F)c4)c2C3=O)cc1OC | – | 4.69 |
| O=C(CCS(=O)(=O)c1ccccc1)N(CCCN1CCOCC1)c1nc2ccc(F)cc2s1 | > 35 µM (inactive) | – |
| CCOC(=O)c1c(NC(=O)C2C3C=CC(C3)C2C(=O)O)sc2c1CCCC2 (configuration not stated) | > 35 µM (inactive) | – |
| Cc1cc(=O)n2nc(N3CCCC(C(=O)NCCc4ccc(Cl)cc4)C3)sc2n1 (configuration not stated) | > 35 µM (inactive) | – |
| CC(C)(C)OC(=O)NCCc1nnc(S(=O)(=O)Cc2ccc(Cl)cc2Cl)o1 | > 35 µM (inactive) | – |
| COc1ccc(NC(=O)CN2CCC(NC(=O)c3ccc(OC)cc3)CC2)cc1 | > 35 µM (inactive) | – |
| Cc1cccc(C)c1NC(=O)c1cnccn1 | > 35 µM (inactive) | – |
| Cc1ccc(OC(=O)C2CCN(C(=O)c3ccccc3C)CC2)c(Br)c1 | > 35 µM (inactive) | – |
| O=C(c1ccco1)N1CCN(C(=O)c2cc(-c3ccccn3)nc3ccc(Cl)cc23)CC1 | > 35 µM (inactive) | – |
| Cc1cc(C)n2nc(SCC(=O)NC(=O)c3ccccc3)nc2n1 | > 35 µM (inactive) | – |
| COc1ccccc1-c1cn[nH]c1-c1ccc(OCc2ccccc2)cc1O | > 35 µM (inactive) | – |
| COc1ccc2[nH]c(C(=O)Nc3ccc(F)cc3Br)cc2c1 | > 35 µM (inactive) | – |
| Cc1cccc(C)c1OCc1nnc(SCC(=O)Nc2nccs2)n1-c1ccccc1 | > 35 µM (inactive) | – |
| CC(C)c1cccc(-c2ccc3c(c2)S(=O)(=O)c2cccc(C(=O)NC4CCCC4)c2C3=O)c1 | > 35 µM (inactive) | – |
| O=P(C(c1c[nH]c2ccccc12)N1CCOCC1)(N1CCOCC1)N1CCOCC1 (configuration not stated) | > 35 µM (inactive) | – |
| CCCc1nc2sc3c(c2c(=O)n1N)CCC3 | > 35 µM (inactive) | – |
| CC(=O)OCCCNc1cc(Sc2nc3ccccc3s2)c2nonc2c1[N+](=O)[O-] | > 35 µM (inactive) | – |
| C[C@H](NC(=O)OC(C)(C)C)C(=O)NCC1CCC(C(=O)N[C@@H](Cc2ccccc2)C(=O)O)CC1 (some centres not stated) | > 35 µM (inactive) | – |
